# Test results reported in the supplement of paper PMC10307832.
# Legend:
# Test in all cases: relative viability (nuclei count vs DMSO), 5 days (fraction); higher = more cells survive
# Sulindac + Foretinib = compound: CC1=C(CC(=O)O)c2cc(F)ccc2/C1=C\c1ccc([S+](C)[O-])cc1 [Sulindac] + COc1cc2c(Oc3ccc(NC(=O)C4(C(=O)Nc5ccc(F)cc5)CC4)cc3F)ccnc2cc1OCCCN1CCOCC1 [Foretinib] (partner 0.25 µM)
# How it was run: (§1)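 After 5 days of treatment, lung cancer cells in 1536-well plates were fixed and stained in a single step (final 0.05% Triton X-100, 1% formaldehyde, 1 ug/ml Hoechst) and their nuclei counted on 4× images. Treatment had been applied by pin tool the day after seeding as one drug alone or as a fixed anchor-drug dose with five library-drug doses (not always all listed) in √10 steps. Relative viability is the nuclei count of treated wells divided by that of vehicle wells, and values are medians of duplicate plates.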
# Sulindac + Lapatinib = compound: CC1=C(CC(=O)O)c2cc(F)ccc2/C1=C\c1ccc([S+](C)[O-])cc1 [Sulindac] + CS(=O)(=O)CCNCc1ccc(-c2ccc3ncnc(Nc4ccc(OCc5cccc(F)c5)c(Cl)c4)c3c2)o1 [Lapatinib] (partner 2 µM)
# How it was run: as §1
# [1] = compound: CN[C@@H]1C[C@H]2O[C@@](C)([C@@H]1OC)n1c3ccccc3c3c4c(c5c6ccccc6n2c5c31)C(=O)NC4 [Staurosporine] + Cc1cc(Nc2cc(N3CCN(C)CC3)nc(Sc3ccc(NC(=O)C4CC4)cc3)n2)n[nH]1 [Tozasertib] (partner 0.1 µM)
# How it was run: as §1
# [2] = compound: CN[C@@H]1C[C@H]2O[C@@](C)([C@@H]1OC)n1c3ccccc3c3c4c(c5c6ccccc6n2c5c31)C(=O)NC4 [Staurosporine] + Nc1ncn([C@H]2C[C@H](O)[C@@H](CO)O2)c(=O)n1 [Decitabine] (partner 2 µM)
# How it was run: as §1
Cell Line,relative viability (Sulindac + Foretinib; first compound 0.08 µM),relative viability (Sulindac + Foretinib; first compound 0.253 µM),relative viability (Sulindac + Foretinib; first compound 8 µM),relative viability (Sulindac + Lapatinib; first compound 0.08 µM),relative viability (Sulindac + Lapatinib; first compound 0.253 µM),relative viability (Sulindac + Lapatinib; first compound 0.8 µM),relative viability (Sulindac + Lapatinib; first compound 2.53 µM),relative viability (Sulindac + Lapatinib; first compound 8 µM),relative viability ([1]; first compound 0.005 µM),relative viability ([1]; first compound 0.05 µM),relative viability ([1]; first compound 0.1581 µM),relative viability ([1]; first compound 0.5 µM),relative viability ([2]; first compound 0.005 µM),relative viability ([2]; first compound 0.05 µM),relative viability ([2]; first compound 0.1581 µM),relative viability ([2]; first compound 0.5 µM),relative viability (Sulindac + Foretinib; first compound 0.8 µM),relative viability (Sulindac + Foretinib; first compound 2.53 µM),relative viability ([2]; first compound 0.01581 µM),relative viability ([1]; first compound 0.01581 µM)
201T,1.1,1.08,1.22,1.05,0.974,1.04,0.997,1.07,1.06,0.758,0.373,0.31,0.884,0.787,0.649,0.672,–,–,–,–
A549,1.04,1.12,1.12,1.12,0.975,0.995,1.04,1.22,–,–,–,–,0.348,0.108,0.0369,0.0407,0.653,0.975,0.239,–
A-427,1.08,1.05,1.02,1.23,1.02,1.07,1.05,1.1,0.171,0.1,0.104,0.0934,0.573,0.282,0.18,0.149,0.979,1.17,0.448,0.113
ABC-1,1.02,0.96,1.33,–,1.23,1.13,1.28,1.24,0.134,0.125,0.111,0.111,0.578,0.353,0.259,0.157,1.02,0.867,0.563,0.104
BEN,0.834,0.693,0.771,0.785,0.714,0.695,0.754,0.995,0.587,0.484,0.434,0.325,0.882,0.486,0.279,0.311,0.57,0.569,0.621,0.743
CAL-12T,1.22,1.22,1.27,0.697,0.64,0.583,0.545,0.806,0.146,0.101,0.132,0.0975,–,–,–,–,0.911,1.12,–,0.117
COR-L23,1.18,1.03,1.26,1.58,1.16,–,0.976,1.12,0.102,0.0926,0.0869,0.0647,0.362,0.193,0.092,0.0806,0.88,0.982,0.248,0.112
COR-L 105,0.871,0.904,1.44,0.348,0.34,0.408,0.324,0.412,0.253,0.245,0.237,0.229,0.603,0.381,0.332,0.229,1.18,0.783,0.44,0.26
Calu-6,1.02,0.916,1.08,1.29,1.04,1.09,1.25,1.3,–,–,–,–,–,–,–,–,0.846,0.893,–,–
ChaGo-K-1,1.05,0.999,0.926,–,–,–,–,–,0.202,0.162,0.145,0.157,0.641,0.544,0.435,0.432,0.925,0.991,–,0.181
EBC-1,0.0937,0.0935,0.105,0.213,0.211,–,0.237,0.218,–,–,–,–,–,–,–,–,–,0.107,–,–
EKVX,0.666,0.942,0.995,0.193,0.186,0.21,0.18,0.111,0.346,0.17,0.165,0.134,0.31,0.202,0.191,0.18,0.421,0.683,0.271,0.213
EMC-BAC-2,0.953,1.05,1.08,0.945,0.973,0.682,0.88,0.93,0.181,0.19,0.192,0.181,0.554,0.222,0.214,0.208,0.892,1.02,0.269,0.138
EPLC-272H,0.669,0.763,0.745,0.987,–,0.602,0.78,1.24,0.381,0.147,0.104,0.108,0.367,0.203,0.102,0.0597,–,0.711,0.193,0.17
H3255,0.962,0.853,0.827,0.206,0.217,0.42,0.21,0.276,0.504,0.203,0.239,0.145,0.53,0.189,0.162,0.117,0.678,0.879,0.404,0.337
HARA,1.28,1.05,1.1,0.989,0.835,–,0.858,0.893,0.102,0.0638,0.0719,0.0716,0.479,0.249,0.15,0.179,0.991,0.819,0.334,–
HCC-15,1.19,1.02,1.33,1.06,0.87,0.763,0.801,0.914,0.379,0.166,0.0982,0.0697,0.436,0.274,0.134,0.106,0.905,0.978,–,–
HCC-44,–,–,–,1.14,1.05,0.919,1.05,1.15,0.426,0.168,0.135,0.112,0.937,0.661,0.302,0.275,–,–,–,0.136
HCC-78,0.512,0.547,0.556,0.868,0.623,0.28,0.569,0.944,0.545,0.424,0.429,0.258,0.76,0.627,0.444,0.49,0.585,0.566,0.617,0.287
HCC-366,0.838,0.964,0.998,1.19,1.13,0.765,1.06,1.49,0.144,0.0425,0.0279,0.0464,0.348,0.116,0.0285,0.0403,0.999,0.994,–,–

Cell Line,relative viability (Sulindac + Foretinib; first compound 0.08 µM),relative viability (Sulindac + Foretinib; first compound 0.253 µM),relative viability (Sulindac + Foretinib; first compound 8 µM),relative viability (Sulindac + Lapatinib; first compound 0.08 µM),relative viability (Sulindac + Lapatinib; first compound 0.253 µM),relative viability (Sulindac + Lapatinib; first compound 0.8 µM),relative viability (Sulindac + Lapatinib; first compound 2.53 µM),relative viability (Sulindac + Lapatinib; first compound 8 µM),relative viability ([1]; first compound 0.005 µM),relative viability ([1]; first compound 0.05 µM),relative viability ([1]; first compound 0.1581 µM),relative viability ([1]; first compound 0.5 µM),relative viability ([2]; first compound 0.005 µM),relative viability ([2]; first compound 0.05 µM),relative viability ([2]; first compound 0.1581 µM),relative viability ([2]; first compound 0.5 µM),relative viability (Sulindac + Foretinib; first compound 0.8 µM),relative viability (Sulindac + Foretinib; first compound 2.53 µM),relative viability ([2]; first compound 0.01581 µM),relative viability ([1]; first compound 0.01581 µM)
HCC-827,1.03,1.05,1.09,0.247,0.183,0.192,0.181,0.184,0.442,0.358,0.329,0.263,0.34,0.288,0.211,0.189,1.1,1.01,0.274,0.313
HOP-62,1.18,1.1,1.25,1.19,1.24,0.929,1.15,1.19,0.349,0.114,0.128,0.103,0.219,0.19,0.131,0.126,–,1.23,0.289,0.237
IA-LM,1.23,1.19,1.3,0.724,0.8,0.68,0.782,0.798,–,–,–,–,–,–,–,–,–,1.2,–,–
LC-2-ad,0.855,1.01,1.02,1.1,1.04,0.893,1.02,1.02,0.435,0.253,0.219,0.161,0.765,0.623,0.167,0.166,0.877,0.872,0.695,0.239
LCLC-97TM1,0.939,0.992,0.962,0.962,1.45,0.83,–,1.37,0.277,0.181,0.199,0.221,0.257,0.217,0.217,0.223,0.804,0.803,0.198,0.139
LCLC-103H,0.817,0.822,0.916,–,–,–,–,–,0.534,0.174,0.128,0.146,0.753,0.34,0.299,0.278,0.681,0.734,0.484,0.207
LK-2,1.73,1.45,1.21,1.05,0.835,–,–,1.15,0.164,0.156,0.149,0.151,0.327,0.369,0.0995,0.0618,–,–,0.173,–
LOU-NH91,0.859,0.964,1.11,0.899,0.72,0.682,0.669,0.831,0.727,0.375,0.302,0.191,0.788,0.624,0.4,0.314,0.876,0.935,0.607,0.483
LU99A,0.87,0.808,0.926,1.33,1.11,0.854,0.869,1.01,0.266,0.185,0.225,0.138,0.934,0.513,0.341,0.198,0.934,0.791,0.672,0.178
NCI-H441,0.992,1.15,1.24,–,–,–,–,–,0.392,0.231,0.195,0.208,0.226,0.238,0.129,0.0673,0.86,1,0.192,0.379
NCI-H522,–,–,–,–,–,–,–,–,0.541,0.492,0.433,0.486,0.502,0.643,0.617,0.564,–,–,0.678,–
NCI-H1299,1.13,1.09,1.15,1.06,0.927,0.96,0.942,1.06,–,–,–,–,–,–,–,–,1.06,1.02,–,–
NCI-H1563,0.98,1.02,0.99,0.992,0.901,0.884,0.879,0.933,–,–,–,–,–,–,–,–,0.912,0.89,–,–
NCI-H1623,0.875,0.779,0.923,–,–,–,–,–,0.491,0.406,0.425,0.277,–,–,–,–,0.637,0.873,–,0.495
NCI-H1648,–,–,–,–,–,–,–,–,0.236,0.169,0.214,0.243,0.43,0.28,0.313,0.287,–,–,0.223,0.185
NCI-H1703,0.276,0.389,0.377,1.37,1.37,0.97,1.25,1.08,–,–,–,–,–,–,–,–,0.355,0.382,–,–
NCI-H1792,–,–,–,1.13,0.982,–,0.947,1.12,–,–,–,–,0.432,0.224,0.133,0.065,–,–,0.298,–
NCI-H2228,1.02,1.07,0.899,1.4,1.3,0.575,1,0.917,0.251,0.109,0.115,0.124,–,–,–,–,0.773,0.751,–,0.201
NCI-H2342,0.86,0.952,1.07,–,–,–,–,–,0.406,0.295,0.305,0.278,0.772,0.513,0.553,0.372,1.02,0.948,0.687,0.495
SW 900,–,0.645,1.11,–,–,–,–,–,0.541,0.246,0.206,0.162,0.531,0.394,0.262,0.25,–,0.948,0.39,0.239
